Measurements: patent publication US6979686B1, “Substituted pyrazoles as p38 kinase inhibitors” (Pharmacia Corporation, priority 2001, dated 2005)
Read-outs that look alike come from different tables or passages of the source. Blank lines part the entries; values can stand above or below the molecule they belong to.

Key:
[1] = biological target: T1, human p38 kinase alpha (Homo sapiens, UniProt Q16539); experiment: p38 kinase in vitro assay, phosphorylation of biotinylated PHAS-I with 32P-ATP; assay type: biochemical
T1 construct: GST (N, cleaved yes); made in house; host or cells: E. coli DH10B

[2] = tested on: TNF-α, U937 human histiocytic lymphoma cell line; experiment: LPS stimulation of TNF production by U937 cells; assay type: cell-based; settings: for inhibition at 1 µM: U-937, @ 1.0 uM, read-out: U937 Cell % inhib @ conc.; for U937 Cell % inhib @ conc. (uM) / U937 Cell % inhib @ conc.: @ 1.0 uM
Protocol: Maintenance and Differentiation of the U937 Human Histiocytic Lymphoma Cell Line:
Fifty million cells in 100 ml media were induced to terminal monocytic differentiation by 24 hour incubation with 20 ng/ml phorbol 12-myristate 13-acetate (Sigma). The cells were washed by centrifugation (200×g for 5 min) and resuspended in 100 ml fresh medium. After 24-48 hours, the cells were harvested, centrifuged, and resuspended in culture medium at 2 million cells/ml.
LPS Stimulation of TNF Production by U937 Cells:
Compounds were prepared as 10 mM stock solutions in DMSO and diluted in culture medium to yield a final DMSO concentration of 0.1% in the cell assay. LPS (E coli, 100 ng/ml final concentration) was then added at a volume of 0.02 ml. After 4 hour incubation at 37° C., the amount of TNF-α released in the culture medium was quantitated by ELISA. Inhibitory potency is expressed as IC50 (μM).
In vitro whole cell assay for measuring the ability of the compounds to inhibit TNF production in human U937 cells stimulated with LPS are shown in the column identified as: • “U937 Cell IC50, uM or % inhib @ conc., (uM)”

[3] = in vitro P38-alpha kinase, read-out: P38 alpha kinase IC50
[4] = Homo sapiens, TNF production, LPS-stimulated U937 cells
[5] = Homo sapiens, U-937, TNF production, human U937 cells stimulated with LPS, read-out: U937 Cell IC50
[6] = in vitro P38-alpha kinase inhibition, read-out: P38 alpha kinase IC50
[7] = Table 5, LPS-stimulated U937 cells, TNF-α, read-out: U937 Cell Assay IC50
[8] = TNF production, U937 cells stimulated with LPS
[9] = Homo sapiens, TNF production, U937 cells stimulated with LPS

T1 sequence (Q16539 whole entry): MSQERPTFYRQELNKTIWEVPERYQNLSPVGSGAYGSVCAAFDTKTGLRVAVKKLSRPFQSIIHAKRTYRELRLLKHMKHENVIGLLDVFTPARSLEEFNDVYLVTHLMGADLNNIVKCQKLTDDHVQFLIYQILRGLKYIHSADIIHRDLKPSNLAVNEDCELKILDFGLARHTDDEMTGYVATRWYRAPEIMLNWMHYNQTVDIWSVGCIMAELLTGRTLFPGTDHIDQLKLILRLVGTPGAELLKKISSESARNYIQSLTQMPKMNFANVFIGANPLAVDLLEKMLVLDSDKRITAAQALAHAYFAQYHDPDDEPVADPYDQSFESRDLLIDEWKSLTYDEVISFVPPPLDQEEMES

IC50 [1, 3]: 120 nM
Compound: O=C(NCCCc1[nH]nc(-c2ccc(F)cc2)c1-c1ccncc1)NCc1cccnc1 [Example B-1310]
inhibition at 1 µM [2, 4]: 11%

IC50 [1, 3]: 80 nM
IC50 [2, 5]: > 1000 nM
Compound: CN(C)CCCNC(=O)NCCCc1[nH]nc(-c2ccc(F)cc2)c1-c1ccncc1 [Example B-1303]

IC50 [1, 6]: 2390 nM
IC50 [2, 5]: > 1000 nM
Compound: O=C(NC(Cc1ccccc1)c1[nH]nc(-c2ccc(F)cc2)c1-c1ccncc1)c1ccccn1 (stereo not shown) [Example B-0823]

IC50 ([1]; activated human p38 kinase alpha, PHAS-I substrate, 50 μM unlabeled ATP, read-out: p38 kinase IC50): 1100 nM
IC50 [2, 7]: 244 nM
Compound: Cc1n[nH]c(-c2ccc(Br)cc2)c1-c1ccncc1 [Example A-39]

inhibition at 1 µM ([1]; @ 1.0 uM, read-out: P38 alpha kinase % inhib @ conc.): 94%
IC50 [2, 5]: 11000 nM
Compound: CC(C)=CC(=O)NCc1[nH]nc(-c2ccc(F)cc2)c1-c1ccncc1 [Example B-0027]

P38 alpha kinase % inhib @ conc. (uM) ([1]; @ 1.0 uM): 58.0% @
Compound: O=S(=O)(C=Cc1ccccc1)NCCc1[nH]nc(-c2ccc(F)cc2)c1-c1ccncc1 [Example B-1016]
U937 Cell % inhib @ conc. (uM) [2, 8]: 10.0% @

IC50 [1, 6]: 810 nM
Compound: CNC(=O)CCC(NC(=O)C(C)C)c1[nH]nc(-c2ccc(F)cc2)c1-c1ccncc1 (stereo not shown) [Example B-0863]
inhibition at 1 µM [2, 9]: 25%

IC50 [1, 3]: 120 nM
Compound: CN(C)c1ccc(CNC(=O)NCCCc2[nH]nc(-c3ccc(F)cc3)c2-c2ccncc2)cc1 [Example B-1301]
inhibition at 1 µM [2, 4]: 15%

IC50 [1, 3]: 260 nM
Compound: O=S(=O)(c1ccccc1)N1CCC(c2[nH]nc(-c3ccc(F)cc3)c2-c2ccncc2)CC1 [Example B-1433]
inhibition at 1 µM [2, 4]: 21%

IC50 [1, 3]: 23 nM
Compound: CN(C)CCNC(=O)NCCCc1[nH]nc(-c2ccc(F)cc2)c1-c1ccncc1 [Example B-1302]
inhibition at 1 µM [2, 4]: 11%

P38 alpha kinase IC50, uM or % inhib @ conc. (uM): % inhib ([1]; @ 10.0 uM): 94.0% @
U937 Cell IC50, uM or % inhib @ conc. (uM): % inhib ([2]; @ 10.0 uM, TNF production, U937 cells stimulated with LPS): 15.0% @
Compound: Cc1c(-c2ccncc2)c(-c2ccc(F)cc2)nn1CC(=O)Nc1ccc(CCC(=O)c2cccnc2)cc1 [Example B-2445]

IC50 [1, 6]: 1110 nM
IC50 [2, 5]: > 1000 nM
Compound: COCC(=O)NC(Cc1ccccc1)c1[nH]nc(-c2ccc(F)cc2)c1-c1ccncc1 (stereo not shown) [Example B-0810]

Compound: O=C(NC(Cc1ccccc1)c1[nH]nc(-c2ccc(F)cc2)c1-c1ccncc1)c1ccccn1 (stereo not shown) [Example B-0855]
U937 Cell % inhib @ conc. (uM) [2, 8]: 8.0% @

IC50 [2, 5]: > 1000 nM
Compound: O=C(NCCCc1[nH]nc(-c2ccc(F)cc2)c1-c1ccncc1)NCCc1c[nH]cn1 [Example B-1306]

Compound: CC1(C)C2CCC1(CS(=O)(=O)NCc1[nH]nc(-c3ccc(F)cc3)c1-c1ccncc1)C(=O)C2 (stereo not shown) [Example B-0227]
U937 Cell % inhib @ conc. [2, 8]: 1.0% @

IC50 [2, 7]: 99 nM
Compound: Cc1[nH]nc(-c2ccc(N(C)C)cc2)c1-c1ccncc1 [Example A-37]

IC50 [2, 7]: 1050 nM
Compound: Cc1ccc(-c2n[nH]c(C)c2-c2ccncc2)c(C)c1 [Example A-31]

Compound: Cc1cccc(C(=O)NCc2[nH]nc(-c3ccc(F)cc3)c2-c2ccncc2)c1 [Example B-0290]
inhibition at 1 µM [2, 9]: 44%

Compound: CC1(C)C2CCC1(CS(=O)(=O)NCc1[nH]nc(-c3ccc(F)cc3)c1-c1ccncc1)C(=O)C2 (stereo not shown) [Example B-0226]
inhibition at 1 µM [2, 9]: 20%

Compound: O=C(NC(Cc1ccccc1)c1[nH]nc(-c2ccc(F)cc2)c1-c1ccncc1)c1ccncc1 (stereo not shown) [Example B-0854]
U937 Cell % inhib @ conc. (uM) [2, 8]: 25.0% @

Compound: O=C(NCc1[nH]nc(-c2ccc(F)cc2)c1-c1ccncc1)c1cccs1 [Example B-0303]
U937 Cell % inhib @ conc. [2, 8]: 10.0% @

Compound: Cc1ccc(S(=O)(=O)NC(Cc2ccccc2)C(=O)NCCCc2[nH]nc(-c3ccc(F)cc3)c2-c2ccncc2)cc1 (stereo not shown) [Example B-1188]
U937 Cell % inhib @ conc. (uM) [2, 8]: 36.0% @

Compound: Cc1cccc(C(=O)NCc2[nH]nc(-c3ccc(F)cc3)c2-c2ccncc2)c1 [Example B-0067]
U937 Cell % inhib @ conc. [2, 8]: 1.0% @

Compound: O=C(NCCCc1[nH]nc(-c2ccc(F)cc2)c1-c1ccncc1)NCc1ccccn1 [Example B-1304]
inhibition at 1 µM [2, 4]: 10%

Compound: O=C(NCc1[nH]nc(-c2ccc(F)cc2)c1-c1ccncc1)c1ccc(F)cc1C(F)(F)F [Example B-0062]
U937 Cell % inhib @ conc. [2, 8]: 36.0% @

Compound: COc1ccc(CC(=O)N[C@H](C)c2[nH]nc(-c3ccc(F)cc3)c2-c2ccncc2)cc1OC [Example B-0371]
inhibition at 1 µM [2, 9]: 28%

Compound: C[C@@H](NC(=O)N[C@H](C)c1[nH]nc(-c2ccc(F)cc2)c1-c1ccncc1)c1ccccc1 [Example B-0417]
U937 Cell % inhib @ conc. (uM) ([2]; TNF production in human U937 cells stimulated with LPS): 28.0% @

P38 alpha kinase % inhib @ conc. (uM) ([1]; @ 1.0 uM): 70.0% @
Compound: CCCNC(=O)NCCc1[nH]nc(-c2ccc(F)cc2)c1-c1ccncc1 [Example B-1041]
